Measured values taken from patent USRE39609E1, “8-iso-prostaglandins for glaucoma therapy” (Mount Sinai School of Medicine of New York University, priority 1997, dated 2007).

Legend:
Type in all cases: in vivo
[1] = system: laser-induced glaucomatous eyes in cynomolgus monkeys; test: Intraocular pressure after single topical dose in glaucomatous monkey eyes; settings: for Intraocular Pressure (treated - baseline) (mean ± SEM) / relative activity in decreasing IOP among the compounds tested: glaucomatous monkey eyes; for relative activity in decreasing IOP among the compounds tested: 0.1 percent; for maximum reduction in IOP (mean SEM) / time for which IOP was reduced (p<0.05): single 25 μl dose of 0.1 percent, laser-induced glaucomatous eyes, cynomolgus monkeys; for maximum reduction in IOP (mean±SEM) as compared to baseline / time for which IOP was reduced (p<0.005): single 25 μl dose
Procedure: Experiments were performed to evaluate the effects of single dose administration of 8-iso PGE2 an IOP in normal (“N”) and glaucomatous (“G”) monkey eyes, and to determine the mechanism by which 8-iso PGE2 alters IOP in N monkey eyes, when applied topically. A single 25 μl dose study was performed in 6 N and 8 G monkeys. IOP and pupil sizes were measured before and at 0 hr, 0.5 hr and then hourly for a total of 6 hrs after 0.05% or 0.1% drug concentrations were administered. Tonographic outflow facility (“C”) and fluorophotometric aqueous humor flow (F) were determined in 6 N monkeys before and after unilateral application of 25 μl of 0.1% 8-iso PGE2. In 8 G monkey eyes, 8-isoPGE2 reduced IOP (p<0.005) up to 2 hrs or 5 hrs following administration of the 0.05% or 0.1% concentration, respectively. The maximum reduction in IOP was 4.6±0.8 (mean±SEM)mm Hg (0.05%) and 6.6±0.8 mm Hg (0.1%), as compared to baseline measurements. After topical application of 8-iso PGE2 the IOP was lower (p<0.01) in the treated eyes of 6 N monkeys for 4 hrs, with a maximum difference of 3.2±0.2 mmHg, as compared to the fellow contralateral control eyes. The pupil size was smaller (p<0.01) for 4 hrs, up to 1.0±0.2 mm. Compared with vehicle-treated contralateral control eyes, C was greater (p<0.005) by 48% at 2 hr after a single dose of 0.1% 8-iso PGE2. F was unchanged (p<0.10) over a period of 4 hrs after drug administration. […] Because of the individual variability in laser-induced glaucomatous monkey eyes, the IOP and facility measurements are expressed in the table as ratios (value of the drug-treated eye+the value of the vehicle-treated eye). The ratios were calculated from the values of the same glaucomatous monkey eye determined immediately prior to administration of the drug or the vehicle (time 0 hrs.), and the values at 2 hours after administration of the drug or vehicle. […] Thus the mechanism of lowering IOP by 8-iso PGE2 in both normal and glaucomatous eyes is primarily due to an increase in aqueous humor trabecular outflow. IOP was measured one hour before and at intervals up to six hours after a single dose of 8-iso PGE, (the 13, 14 dihydro derivative of 8-iso PGE2), 8-iso PGE2, or 8-iso PGF2α in laser-induced glaucomatous eyes in cynomolgus monkeys (wherein only one eye is rendered glaucomatous and the other serves as a control). Following one day of baseline IOP measurement, a single 25 μl dose of either (i) 0.1 percent 8-iso PGE1, or (ii) 0.1 percent 8-iso PGE2, or (iii) 0.1 percent 8-iso PGF2α, was topically applied to the glaucomatous eye in groups of 4 or 8 monkeys. […] The maximum reduction in IOP was 5.3±0.8 (mean SEM) mm Hg at 2 hours after dosing 8-iso PGE2 (0.1 percent) reduced IOP (p<0.05) for 5 hours with a maximum reduction in IOP of 6.6±0.8 mm Hg at 2 hours after dosing (n=8). […] Based on these studies, of the compounds tested, 8-iso PGE2 appears to have the greatest and 8-iso PGF2α, the least activity in decreasing IOP in glaucomatous monkey eyes.

[2] = system: normal monkey eyes; test: Intraocular pressure after single topical dose in normal monkey eyes
Procedure: Experiments were performed to evaluate the effects of single dose administration of 8-iso PGE2 an IOP in normal (“N”) and glaucomatous (“G”) monkey eyes, and to determine the mechanism by which 8-iso PGE2 alters IOP in N monkey eyes, when applied topically. A single 25 μl dose study was performed in 6 N and 8 G monkeys. […] Tonographic outflow facility (“C”) and fluorophotometric aqueous humor flow (F) were determined in 6 N monkeys before and after unilateral application of 25 μl of 0.1% 8-iso PGE2. In 8 G monkey eyes, 8-isoPGE2 reduced IOP (p<0.005) up to 2 hrs or 5 hrs following administration of the 0.05% or 0.1% concentration, respectively. The maximum reduction in IOP was 4.6±0.8 (mean±SEM)mm Hg (0.05%) and 6.6±0.8 mm Hg (0.1%), as compared to baseline measurements. After topical application of 8-iso PGE2 the IOP was lower (p<0.01) in the treated eyes of 6 N monkeys for 4 hrs, with a maximum difference of 3.2±0.2 mmHg, as compared to the fellow contralateral control eyes. The pupil size was smaller (p<0.01) for 4 hrs, up to 1.0±0.2 mm. Compared with vehicle-treated contralateral control eyes, C was greater (p<0.005) by 48% at 2 hr after a single dose of 0.1% 8-iso PGE2. F was unchanged (p<0.10) over a period of 4 hrs after drug administration.

[3] = system: normal monkey eyes; test: Pupil size after topical application in normal monkeys
Procedure: (§1) Experiments were performed to evaluate the effects of single dose administration of 8-iso PGE2 an IOP in normal (“N”) and glaucomatous (“G”) monkey eyes, and to determine the mechanism by which 8-iso PGE2 alters IOP in N monkey eyes, when applied topically. A single 25 μl dose study was performed in 6 N and 8 G monkeys. IOP and pupil sizes were measured before and at 0 hr, 0.5 hr and then hourly for a total of 6 hrs after 0.05% or 0.1% drug concentrations were administered. Tonographic outflow facility (“C”) and fluorophotometric aqueous humor flow (F) were determined in 6 N monkeys before and after unilateral application of 25 μl of 0.1% 8-iso PGE2. In 8 G monkey eyes, 8-isoPGE2 reduced IOP (p<0.005) up to 2 hrs or 5 hrs following administration of the 0.05% or 0.1% concentration, respectively. The maximum reduction in IOP was 4.6±0.8 (mean±SEM)mm Hg (0.05%) and 6.6±0.8 mm Hg (0.1%), as compared to baseline measurements. After topical application of 8-iso PGE2 the IOP was lower (p<0.01) in the treated eyes of 6 N monkeys for 4 hrs, with a maximum difference of 3.2±0.2 mmHg, as compared to the fellow contralateral control eyes. The pupil size was smaller (p<0.01) for 4 hrs, up to 1.0±0.2 mm. Compared with vehicle-treated contralateral control eyes, C was greater (p<0.005) by 48% at 2 hr after a single dose of 0.1% 8-iso PGE2. […]

[4] = system: normal monkey eyes; test: Tonographic outflow facility (C) in normal monkeys
Procedure: Experiments were performed to evaluate the effects of single dose administration of 8-iso PGE2 an IOP in normal (“N”) and glaucomatous (“G”) monkey eyes, and to determine the mechanism by which 8-iso PGE2 alters IOP in N monkey eyes, when applied topically. A single 25 μl dose study was performed in 6 N and 8 G monkeys. […] In 8 G monkey eyes, 8-isoPGE2 reduced IOP (p<0.005) up to 2 hrs or 5 hrs following administration of the 0.05% or 0.1% concentration, respectively. The maximum reduction in IOP was 4.6±0.8 (mean±SEM)mm Hg (0.05%) and 6.6±0.8 mm Hg (0.1%), as compared to baseline measurements. After topical application of 8-iso PGE2 the IOP was lower (p<0.01) in the treated eyes of 6 N monkeys for 4 hrs, with a maximum difference of 3.2±0.2 mmHg, as compared to the fellow contralateral control eyes. The pupil size was smaller (p<0.01) for 4 hrs, up to 1.0±0.2 mm. […] F was unchanged (p<0.10) over a period of 4 hrs after drug administration.

[5] = system: normal monkey eyes; test: Fluorophotometric aqueous humor flow (F) in normal monkeys; settings: 6 normal monkeys, over 4 hrs after 25 μl of 0.1%
Procedure: as §1

[6] = system: monkey eyes; test: Ocular side effects after topical dosing in monkey eyes; settings: eyes treated with the 0.1% concentration
Procedure: as §1

[7] = system: glaucomatous monkey eyes; test: Outflow facility in glaucomatous monkey eyes; settings: 0.1%, 8 glaucomatous monkey eyes
Procedure: Because of the individual variability in laser-induced glaucomatous monkey eyes, the IOP and facility measurements are expressed in the table as ratios (value of the drug-treated eye+the value of the vehicle-treated eye). The ratios were calculated from the values of the same glaucomatous monkey eye determined immediately prior to administration of the drug or the vehicle (time 0 hrs.), and the values at 2 hours after administration of the drug or vehicle. […] Thus the mechanism of lowering IOP by 8-iso PGE2 in both normal and glaucomatous eyes is primarily due to an increase in aqueous humor trabecular outflow.

[8] = 0.1%, 2 hours after treatment, 6 normal monkeys (Table 1A)
[9] = 0.005%, 6 normal monkeys, 1 hour after treatment
[10] = 0.005%, 1 hour after treatment, 6 normal monkeys (Table 1B)

## CCCCC[C@H](O)/C=C/[C@@H]1[C@H](C/C=C\CCCC(=O)O)[C@@H](O)C[C@H]1O [8-iso PGF2α, prosta-5,13-dien-1-oic acid, 9, 11, 15-trihydroxy-, (5Z, 8β, 9α, 11α, 13E, 15S)-]
[1]; 0.1%, 1 hr
  Intraocular Pressure (treated - baseline) (mean ± SEM): −3.3 ± 0.8 mm Hg
[1]; 0.1%, 2 hr
  Intraocular Pressure (treated - baseline) (mean ± SEM): −1.8 ± 1.1 mm Hg
[1]; 0.1%, 4 hr
  Intraocular Pressure (treated - baseline) (mean ± SEM): −0.8 ± 1.7 mm Hg
[1]; 0.1%, 6 hr
  Intraocular Pressure (treated - baseline) (mean ± SEM): 0.3 ± 0.5 mm Hg
[1]
  relative activity in decreasing IOP among the compounds tested: least
  maximum reduction in IOP (mean SEM): 3.3±0.9 mm Hg
  time for which IOP was reduced (p<0.05): only at 1 hour

## CCCCC[C@H](O)/C=C/[C@H]1[C@H](O)CC(=O)[C@H]1C/C=C\CCCC(=O)O [8-iso PGE2, prosta-5,13-dien-1-oic acid, 11,15-dihydroxy-9-oxo, (5Z, 8β, 11α, 13E,15S)]
[1]; 0.1%, 8 glaucomatous monkey eyes, 2 hr
  Intraocular Pressure response ratio (drug-treated/vehicle-treated): 0.843 ±
[1]; 0.1%, 8 glaucomatous monkey eyes, 2 hr vs 0 hr
  % change by drug in intraocular pressure (decrease): 13.8%
[1]; 0.1%, 1 hr
  Intraocular Pressure (treated - baseline) (mean ± SEM): −4.5 ± 0.9 mm Hg
[1]; 0.1%, 2 hr
  Intraocular Pressure (treated - baseline) (mean ± SEM): −6.6 ± 0.8 mm Hg
[1]; 0.1%, 4 hr
  Intraocular Pressure (treated - baseline) (mean ± SEM): −2.9 ± 0.6 mm Hg
[1]; 0.1%, 6 hr
  Intraocular Pressure (treated - baseline) (mean ± SEM): −1.2 ± 1.2 mm Hg
[1]
  relative activity in decreasing IOP among the compounds tested: greatest
  maximum reduction in IOP (mean SEM): 6.6±0.8 mm Hg
  time for which IOP was reduced (p<0.05): 5 h
[1]; 8 glaucomatous monkey eyes, 0.05%
  maximum reduction in IOP (mean±SEM) as compared to baseline: 4.6±0.8 mm Hg
[1]; 8 glaucomatous monkey eyes, 0.05% concentration
  time for which IOP was reduced (p<0.005): up to 2 hrs
[1]; 8 glaucomatous monkey eyes, 0.1%
  maximum reduction in IOP (mean±SEM) as compared to baseline: 6.6±0.8 mm Hg
[1]; 8 glaucomatous monkey eyes, 0.1% concentration
  time for which IOP was reduced (p<0.005): ≤ 5 h
[2]; 0.1%, 6 normal monkeys, 2 hours after treatment
  Intraocular Pressure Mean ± SEM, treated eyes (drug): 13.0 ± 0.7 mmHg
[2]; [8]
  lowering of IOP in normal monkey eye: 20.3%
[2]; 6 normal monkeys, topical application
  maximum difference in IOP as compared to fellow contralateral control eyes: 3.2±0.2 mmHg
[2]; 6 normal monkeys, topical application, vs fellow contralateral control eyes
  time for which IOP was lower (p<0.01) in treated eyes: 4 h
[3]
  reduction in pupil size: up to 1.0±0.2 mm
  time for which pupil size was smaller (p<0.01): 4 h
[4]; [8]
  increase of outflow facility in normal monkey eye: 43.1%
[4]; 6 normal monkeys, 2 hr after single 25 μl dose of 0.1%
  outflow facility C greater compared with vehicle-treated contralateral control eyes (p<0.005): 48%
[5]
  aqueous humor flow F change: unchanged
[6]
  ocular side effects: Mild eyelid edema, conjunctival edema, hyperemia, and discharge appeared in some eyes
[7]; 2 hr
  Outflow facility response ratio (drug-treated/vehicle treated): 1.445 ±
[7]; 2 hr vs 0 hr
  % change by drug in outflow facility: 38.8%

## CCCCC[C@H](O)/C=C/[C@H]1[C@H](O)CC(=O)[C@H]1CCCCCCC(=O)O [8-iso PGE1, 8-iso, 5,6 dihydro prostaglandin E2]
[1]; 0.1%, 1 hr
  Intraocular Pressure (treated - baseline) (mean ± SEM): −3.3 ± 1.3 mm Hg
[1]; 0.1%, 2 hr
  Intraocular Pressure (treated - baseline) (mean ± SEM): −5.3 ± 0.8 mm Hg
[1]; 0.1%, 4 hr
  Intraocular Pressure (treated - baseline) (mean ± SEM): −2.3 ± 0.5 mm Hg
[1]; 0.1%, 6 hr
  Intraocular Pressure (treated - baseline) (mean ± SEM): −1.3 ± 0.9 mm Hg
[1]
  maximum reduction in IOP (mean SEM): 5.3±0.8 mm Hg
  time for which IOP was reduced (p<0.05): up to four

## CC(C)OC(=O)CCC/C=C\C[C@@H]1[C@@H](CC[C@@H](O)CCc2ccccc2)[C@H](O)C[C@@H]1O [latanoprost, reference compound]
[2]; [9]
  Intraocular Pressure Mean ± SEM, treated eyes (drug): 13.2 ± 0.7 mmHg
[2]; [10]
  lowering of IOP in normal monkey eye: 10.8%
[4]; [9]
  Outflow Facility Mean ± SEM, treated eyes (drug): 0.76 ± 0.08 μl/min/mmHg
[4]; [10]
  effect on outflow facility in normal monkey eye: not significant effect
